Source: the CheMixHub viscosity set
“And” between values parts separate entries of the source, which are not always exact repeats. Equal values may be shown once.

BrCCBr
viscosity
Settings | 298.15 K | 308.15 K | 323.15 K
101 kPa | 1.613 mPa·s | – | –
101.33 kPa | 1.616 mPa·s and 1.564 mPa·s | 1.384 mPa·s | 1.107 mPa·s

Brc1ccccc1
Settings | viscosity
293.15 K, 101 kPa | 1.125 mPa·s
293.15 K, 101.33 kPa | 1.142 mPa·s
298.15 K, 101 kPa | 1.07 mPa·s and 1.068 mPa·s
303.15 K, 101.33 kPa | 0.985 mPa·s
313.15 K, 101.33 kPa | 0.895 mPa·s
318 K, 101.3 kPa | 0.8536 mPa·s
318 K, 101.33 kPa | 0.8536 mPa·s
318.15 K, 101 kPa | 0.7925 mPa·s and 0.836 mPa·s
323.15 K, 101 kPa | 0.784 mPa·s

C#Cc1ccccc1
Settings | viscosity [mPa·s]
298.15 K, 101 kPa | 0.8829

C1=C[C@H]2[C@@H](C1)[C@H]1C=C[C@@H]2C1
101.2 kPa
Settings | viscosity [mPa·s]
293.15 K | 4.463
298.15 K | 3.918
303.15 K | 3.456
308.15 K | 3.126
313.15 K | 2.81
318.15 K | 2.539

C1COCCO1
Settings | viscosity
293.15 K, 100 kPa | 1.286 mPa·s and 1.221 mPa·s
293.15 K, 101 kPa | 1.271 mPa·s
293.15 K, 101.3 kPa | 1.297 mPa·s
295.1 K, 101.32 kPa | 1.26 mPa·s
298.15 K, 100 kPa | 1.122 mPa·s
298.15 K, 101 kPa | 1.155 mPa·s
298.15 K, 101.33 kPa | 1.321 mPa·s and 1.149 mPa·s
301.15 K, 101.32 kPa | 1.116 mPa·s
302.15 K, 101 kPa | 1.099 mPa·s
303.15 K, 100 kPa | 1.034 mPa·s
304.15 K, 101.32 kPa | 1.046 mPa·s
306.15 K, 101 kPa | 1.029 mPa·s
307.15 K, 101.32 kPa | 0.9913 mPa·s
308.15 K, 100 kPa | 0.999 mPa·s
308.15 K, 101.33 kPa | 1 mPa·s and 0.999 mPa·s and 0.969 mPa·s
309.15 K, 101 kPa | 0.9815 mPa·s
310.15 K, 101.32 kPa | 0.9402 mPa·s
311.15 K, 101 kPa | 0.9497 mPa·s
313.1 K, 101 kPa | 0.929 mPa·s and 0.929 mPa·s
313.15 K, 101.32 kPa | 0.939 mPa·s and 0.8914 mPa·s
313.15 K, 101.33 kPa | 0.9376 mPa·s
316.15 K, 101 kPa | 0.8859 mPa·s
318.15 K, 101.33 kPa | 0.8714 mPa·s and 0.901 mPa·s
320.15 K, 101 kPa | 0.8276 mPa·s
323.1 K, 101 kPa | 0.809 mPa·s and 0.809 mPa·s
323.15 K, 100 kPa | 0.814 mPa·s
323.15 K, 101 kPa | 0.8147 mPa·s and 0.819 mPa·s
323.15 K, 101.33 kPa | 0.8121 mPa·s

CC(=O)OCC(COC(C)=O)OC(C)=O
101.33 kPa
Settings | viscosity [mPa·s]
298 K | 16.31
303 K | 12.62
308 K | 10.03
313 K | 8.12

CC(=O)[O-].CCCC[n+]1ccn(C)c1
viscosity
Settings | 298.15 K | 303.15 K | 313.15 K | 314.3 K | 323.15 K
100 kPa | 594.8 mPa·s | 399.6 mPa·s | 200.1 mPa·s | – | 111.7 mPa·s
101 kPa | 441 mPa·s | – | 154.5 mPa·s | 125.7 mPa·s and 138.3 mPa·s | –

CC(C)N
Settings | viscosity [mPa·s]
298.15 K, 101 kPa | 0.278

CC(C)[N+](=O)[O-]
Settings | viscosity [mPa·s]
293.15 K, 101.33 kPa | 0.771

CC(F)(F)Cl
101 kPa
Settings | viscosity [mPa·s]
293.15 K | 0.2489
293.35 K | 0.2432
293.45 K | 0.2381
313.15 K | 0.2004
313.25 K | 0.2015
313.35 K | 0.2002

CCCC#N
Settings | viscosity [mPa·s]
298.15 K, 101 kPa | 0.502
